Source: PubChem BioAssay (NCI)
Several values for one entry are separate records, joined by “and”; a condition that tells them apart may be missing. Identical values can stand only once.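 Cells were grown in 96-well plates and exposed to each compound for 48 hours at five concentrations; endpoints were interpolated linearly between bracketing concentrations, or set to the highest concentration if not reached. Abbreviation: GI50, concentration required for 50% inhibition of growth. TGI: total growth inhibition.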

What was measured:
Experiment in all cases: growth of human tumour cells (NCI), 48 h
CAKI-1 renal = tested on: CAKI-1 renal
MCF7 breast = tested on: MCF7 breast
MDA-MB-231 breast = tested on: MDA-MB-231 breast
MDA-MB-435 = tested on: MDA-MB-435
MOLT-4 leukemia = tested on: MOLT-4 leukemia
PC-3 prostate = tested on: PC-3 prostate
RPMI-8226 leukemia = tested on: RPMI-8226 leukemia
SR leukemia = tested on: SR leukemia
UACC-257 melanoma = tested on: UACC-257 melanoma
UO-31 renal = tested on: UO-31 renal

Row | SMILES | GI50 (CAKI-1 renal) | TGI (CAKI-1 renal) | GI50 (MCF7 breast) | TGI (MCF7 breast) | GI50 (MDA-MB-231 breast) | TGI (MDA-MB-231 breast) | GI50 (MDA-MB-435) | TGI (MDA-MB-435) | GI50 (MOLT-4 leukemia) | TGI (MOLT-4 leukemia) | GI50 (PC-3 prostate) | TGI (PC-3 prostate) | GI50 (RPMI-8226 leukemia) | TGI (RPMI-8226 leukemia) | GI50 (SR leukemia) | TGI (SR leukemia) | GI50 (UACC-257 melanoma) | TGI (UACC-257 melanoma) | GI50 (UO-31 renal) | TGI (UO-31 renal)
1 | NC(=O)c1cccc2c(N[C@H](CN3CCC3)c3ccc(Cl)c(C(F)(F)F)c3)ncnc12 | 0.232 µM | 3.39 µM | 0.396 µM | 3.75 µM | 2.44 µM | 13.7 µM | 1.44 µM | 11.3 µM | 0.257 µM | 3.46 µM | 0.638 µM | 12.8 µM | 2.69 µM | 9.06 µM | 1.35 µM | 6.58 µM | 1.22 µM | 5.27 µM | 0.306 µM | 4.91 µM
2 | COC1=CC(c2ccc[nH]2)=N/C1=C\c1[nH]c(C)c(C(=O)CCC(=O)Oc2ccc3c(c2)CCC2C3CC[C@]3(C)[C@@H](O)CC[C@@H]23)c1C (some centres undefined) | 2.38 µM | > 100 µM | 0.917 µM | > 100 µM | 0.46 µM | 2.55 µM | 3.25 µM | > 100 µM |  |  | 3.8 µM | > 100 µM |  |  | 0.643 µM | 5.1 µM | > 100 µM | > 100 µM | 1.59 µM | 3.73 µM
3 | O=C(c1ccccc1)C(Cl)C(Cl)c1ccccc1 (centres undefined) | 2.53 µM | 8.18 µM | 1 µM | 10.3 µM | 3.16 µM | 8.97 µM | 2.26 µM | 5.56 µM | 2.33 µM | 6.25 µM | 5.29 µM | 15.8 µM | 2.27 µM | 7.08 µM | 0.381 µM | 7.65 µM |  |  | 1.62 µM | 3.45 µM
4 | COC(=O)C12CCC(C)(C)CC1C1=CCC3C4(C)CC(O)C(O)C(C)(C(=O)OC)C4CCC3(C)C1(CO)CC2 (centres undefined) |  | 27.8 µM |  | 29.8 µM |  | 33.5 µM |  | 32.4 µM |  | 34.4 µM |  | 22 µM |  | 40.9 µM |  | 31.4 µM |  | 31.7 µM |  | 
5 | COc1ccc(/C=C/C(=O)c2c(O)ccc3c(C)c(C(=O)O)oc23)cc1 | 63.2 µM | > 100 µM | 28.1 µM | > 100 µM | 44.7 µM | > 100 µM | 50.5 µM | > 100 µM | 31 µM | > 100 µM | 66 µM | > 100 µM |  |  | 19.2 µM | 64.4 µM | 84.9 µM | > 100 µM | > 100 µM | > 100 µM
6 | O=C(CCCn1c2c(sc3ccccc32)c(=O)n2nnc(-c3ccccc3)c12)NCCc1cnc[nH]1 |  |  | 1.1 µM | 2.43 µM | 1.91 µM | 3.5 µM | 0.345 µM | 1.87 µM | 0.815 µM | > 100 µM | 0.0603 µM | 2.21 µM |  |  | 0.356 µM | 5.61 µM | 2.2 µM | 4.39 µM | 1.42 µM | 2.95 µM
7 | CN1CC=C(c2cc(NC(=O)Nc3ccc(Oc4ccnc(NC(=O)C5CC5)c4)c(F)c3)cc(C(F)(F)F)c2)CC1 |  |  | 0.153 µM | 0.693 µM | 0.176 µM | 0.806 µM | 0.429 µM | 1.17 µM | 0.202 µM | 0.943 µM | 0.242 µM | 1.25 µM |  |  | 0.152 µM | 0.863 µM | 1.34 µM | 3.24 µM | 1.58 µM | 3.57 µM
8 | COC(=O)c1cc(NC(=O)c2cc(NC(=O)c3cc([N+](=O)[O-])n(C)c3)cn2C)cn1C | > 100 µM | > 100 µM | > 100 µM | > 100 µM | 51 µM | > 100 µM | > 100 µM | > 100 µM |  |  | > 100 µM | > 100 µM | > 100 µM | > 100 µM | 39.3 µM | > 100 µM | > 100 µM | > 100 µM | > 100 µM | > 100 µM
9 | CC1=C/C=C/C(=O)O[C@@H]([C@H](C)[C@H](O)[C@@H](C)NC(=O)C(C)C)[C@H](C)/C=C/C(C)=C/[C@H]2C=CCC[C@@]2(C)\C=C\1 |  |  | 0.0746 µM and 0.0382 µM | 23.7 µM | 0.0186 µM | 0.106 µM | 0.0335 µM and 0.0165 µM | 6.43 µM | 8.41 µM | 31.6 µM | 0.654 µM and 0.223 µM | 13.2 µM | 0.705 µM and 0.703 µM | 12.3 µM | 0.41 µM and 0.191 µM | 5.58 µM |  | 13.3 µM | 0.244 µM and 0.396 µM | 7.85 µM
10 | Fc1cc(F)c(F)c(S)c1F |  | > 100 µM |  | > 100 µM |  | 44.8 µM |  | > 100 µM |  | 66 µM |  | 42.2 µM |  | > 100 µM |  |  |  | > 100 µM |  | > 100 µM
11 | Cc1ccc(C)c2c1C(=O)N(c1ccc(F)cc1F)C2=O | > 100 µM | > 100 µM | > 100 µM | > 100 µM | 22.9 µM | > 100 µM | > 100 µM | > 100 µM | > 100 µM | > 100 µM | > 100 µM | > 100 µM | 98.8 µM | > 100 µM |  |  | > 100 µM | > 100 µM | > 100 µM | > 100 µM
12 | COC(=O)C1=COC2OC3C(C(C)O)C(=O)OC34C=CC1C24 (centres undefined) |  | > 100 µM |  | > 100 µM |  | > 100 µM |  | > 100 µM |  | > 100 µM |  | > 100 µM |  | 90.8 µM |  |  |  | > 100 µM |  | > 100 µM
